What is called pIC50 is the IC50 on a negative log10 scale, so that one unit is a factor of ten. Read a low pIC50 as a large IC50.

pIC50: −log10 of the molar value.

One experiment addresses PI3 Kinase α (Homo sapiens, UniProt P42336). Briefly: Fluorescence polarization assay for PI3K (PI3 Kinase α). The class given is biochemical. Particulars: diC8-PI(4,5)P2 substrate, 25 μM ATP, one hour at 25° C. (Polarisation of emitted light reports the rotation of a fluorescent probe.)
A further experiment addresses PI3 Kinase γ (Homo sapiens, UniProt P48736). The experiment is described as follows: Fluorescence polarization assay for PI3K (PI3 Kinase γ). The experiment is classed as biochemical. As to conditions: diC8-PI(4,5)P2 substrate, 25 μM ATP, one hour at 25° C.

PI3 Kinase γ, sequence (P48736 whole entry): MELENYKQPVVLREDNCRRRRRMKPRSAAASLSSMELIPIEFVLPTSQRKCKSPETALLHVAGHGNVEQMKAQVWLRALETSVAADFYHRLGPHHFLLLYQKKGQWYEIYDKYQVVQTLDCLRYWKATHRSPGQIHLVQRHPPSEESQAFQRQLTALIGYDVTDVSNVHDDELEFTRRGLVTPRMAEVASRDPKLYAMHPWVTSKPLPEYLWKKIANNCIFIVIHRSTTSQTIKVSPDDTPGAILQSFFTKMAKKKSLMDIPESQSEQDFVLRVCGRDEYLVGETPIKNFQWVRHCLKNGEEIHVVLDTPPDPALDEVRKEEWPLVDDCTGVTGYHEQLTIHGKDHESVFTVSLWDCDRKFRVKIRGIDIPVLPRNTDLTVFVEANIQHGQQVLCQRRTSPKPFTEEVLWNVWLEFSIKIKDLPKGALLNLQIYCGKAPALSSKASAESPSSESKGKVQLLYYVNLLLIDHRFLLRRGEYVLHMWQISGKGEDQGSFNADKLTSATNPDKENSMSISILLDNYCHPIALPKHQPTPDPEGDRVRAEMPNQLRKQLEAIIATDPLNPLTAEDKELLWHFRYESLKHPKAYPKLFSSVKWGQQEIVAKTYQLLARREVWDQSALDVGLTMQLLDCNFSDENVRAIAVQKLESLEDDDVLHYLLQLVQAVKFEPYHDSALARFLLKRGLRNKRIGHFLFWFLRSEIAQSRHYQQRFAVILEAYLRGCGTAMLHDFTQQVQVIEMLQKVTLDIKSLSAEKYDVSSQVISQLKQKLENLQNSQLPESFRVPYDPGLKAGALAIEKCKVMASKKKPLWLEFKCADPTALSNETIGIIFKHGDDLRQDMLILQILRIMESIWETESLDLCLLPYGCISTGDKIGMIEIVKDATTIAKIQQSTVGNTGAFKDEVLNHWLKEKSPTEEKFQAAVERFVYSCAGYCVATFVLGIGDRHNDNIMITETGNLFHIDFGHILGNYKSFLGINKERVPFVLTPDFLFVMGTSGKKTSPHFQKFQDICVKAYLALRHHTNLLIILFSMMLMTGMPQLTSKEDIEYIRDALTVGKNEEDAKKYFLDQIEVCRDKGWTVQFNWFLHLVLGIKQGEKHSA
PI3 Kinase α, sequence (P42336 whole entry): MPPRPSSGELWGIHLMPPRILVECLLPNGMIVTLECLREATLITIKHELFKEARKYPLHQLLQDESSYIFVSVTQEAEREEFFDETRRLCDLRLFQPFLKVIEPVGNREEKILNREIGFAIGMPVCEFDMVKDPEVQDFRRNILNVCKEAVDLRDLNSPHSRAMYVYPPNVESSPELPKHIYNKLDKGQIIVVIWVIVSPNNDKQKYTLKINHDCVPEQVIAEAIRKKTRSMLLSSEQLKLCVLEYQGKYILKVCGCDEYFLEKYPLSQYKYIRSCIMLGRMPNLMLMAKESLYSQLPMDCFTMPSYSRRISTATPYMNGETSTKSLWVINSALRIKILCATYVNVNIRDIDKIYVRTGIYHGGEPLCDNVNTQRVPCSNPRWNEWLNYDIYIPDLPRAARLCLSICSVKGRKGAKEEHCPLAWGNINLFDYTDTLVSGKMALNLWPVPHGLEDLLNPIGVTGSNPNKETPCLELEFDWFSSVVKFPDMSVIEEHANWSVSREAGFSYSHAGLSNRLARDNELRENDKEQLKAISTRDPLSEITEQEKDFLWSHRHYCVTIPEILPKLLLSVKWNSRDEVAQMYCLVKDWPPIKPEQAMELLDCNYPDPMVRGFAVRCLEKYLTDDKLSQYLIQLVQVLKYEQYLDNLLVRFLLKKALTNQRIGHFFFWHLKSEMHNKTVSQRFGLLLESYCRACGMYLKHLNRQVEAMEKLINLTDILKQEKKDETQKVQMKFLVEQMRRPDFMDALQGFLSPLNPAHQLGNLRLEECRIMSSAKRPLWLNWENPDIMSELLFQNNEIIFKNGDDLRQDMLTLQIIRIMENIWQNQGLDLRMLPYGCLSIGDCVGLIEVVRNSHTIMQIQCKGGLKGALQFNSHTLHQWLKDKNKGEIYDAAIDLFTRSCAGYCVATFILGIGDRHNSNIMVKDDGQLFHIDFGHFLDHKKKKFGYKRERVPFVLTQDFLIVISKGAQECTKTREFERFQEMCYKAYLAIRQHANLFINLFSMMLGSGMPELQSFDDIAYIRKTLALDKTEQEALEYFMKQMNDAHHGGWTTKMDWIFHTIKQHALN
PI3 Kinase α, sequence (P27986 whole entry partner): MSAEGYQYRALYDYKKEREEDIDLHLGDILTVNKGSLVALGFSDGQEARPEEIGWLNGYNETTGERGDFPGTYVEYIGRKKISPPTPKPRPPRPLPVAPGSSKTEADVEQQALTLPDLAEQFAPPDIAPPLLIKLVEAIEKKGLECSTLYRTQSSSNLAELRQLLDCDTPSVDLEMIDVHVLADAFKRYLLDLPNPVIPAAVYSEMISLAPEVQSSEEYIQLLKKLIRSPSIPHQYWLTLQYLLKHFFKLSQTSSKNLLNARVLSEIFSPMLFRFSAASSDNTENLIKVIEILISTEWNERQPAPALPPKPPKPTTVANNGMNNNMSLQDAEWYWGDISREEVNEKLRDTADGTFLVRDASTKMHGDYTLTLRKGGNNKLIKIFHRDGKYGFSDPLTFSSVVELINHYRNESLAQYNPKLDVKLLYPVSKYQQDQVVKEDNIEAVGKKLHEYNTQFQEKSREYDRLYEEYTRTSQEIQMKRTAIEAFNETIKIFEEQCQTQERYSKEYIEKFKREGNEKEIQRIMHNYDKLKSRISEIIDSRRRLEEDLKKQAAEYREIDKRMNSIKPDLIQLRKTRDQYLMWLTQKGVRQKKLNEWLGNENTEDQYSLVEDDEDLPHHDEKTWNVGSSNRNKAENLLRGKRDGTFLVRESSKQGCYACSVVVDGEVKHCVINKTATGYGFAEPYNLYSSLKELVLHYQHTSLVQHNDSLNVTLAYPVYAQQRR

On to `O=C(Nc1ccncc1)Nc1ccc(-c2nc(N3CCOCC3)c3nnn(C4CCNCC4)c3n2)cc1` [Example 167, 1-[4-(7-morpholin-4-yl-3-piperidin-4-yl-3H-[1,2,3]triazolo[4,5-d]pyrimidin-5-yl)phenyl]-3-pyridin-4-ylurea], for which the pIC50 at PI3 Kinase α is 8.05; on PI3 Kinase γ, 7.04.

As for `COc1ccc(NC(=O)Nc2ccc(-c3nc(N4CCOCC4)c4nnn(C(C)C)c4n3)cc2)cc1` [Example 89, 1-(4-methoxy-phenyl)-3-[4-(3-isopropyl-7-morpholin-4-yl-3H-[1,2,3]triazolo[4,5-d]pyrimidin-5-yl)-phenyl]-urea], the pIC50 on PI3 Kinase α is 7.81; against PI3 Kinase γ it was 7.40.

Consider `COc1ccc(NC(=O)Nc2ccc(-c3nc(N4CCOCC4)c4nnn(CCO)c4n3)cc2)cc1` [Example 185, 1-{4-[3-(2-hydroxyethyl)-7-morpholin-4-yl-3H-[1,2,3]triazolo[4,5-d]pyrimidin-5-yl]phenyl}-3-(4-methoxyphenyl)urea], for which the pIC50 on PI3 Kinase α was 7.85; on PI3 Kinase γ, 7.35.

As for `CN(C)CCCOc1ccc(CN2CCN(CCn3nnc4c(N5CCOCC5)nc(-c5cccc(O)c5)nc43)CC2)cc1` [Example 110, 3-{3-[2-(4-{4-[3-(dimethylamino)propoxy]benzyl}piperazin-1-yl)ethyl]-7-morpholin-4-yl-3H-[1,2,3]triazolo[4,5-d]pyrimidin-5-yl}phenol], the pIC50 on PI3 Kinase α was 6.70; against PI3 Kinase γ it was 6.40.

In the case of `CC(C)(C)OC(=O)N1CCC(n2nnc3c(N4CCOCC4)nc(-c4cccc(O)c4)nc32)CC1` [Example 143, tert-butyl 4-[5-(3-hydroxyphenyl)-7-morpholin-4-yl-3H-[1,2,3]triazolo[4,5-d]pyrimidin-3-yl]piperidine-1-carboxylate], the pIC50 was 6.72 on PI3 Kinase α and 5.42 against PI3 Kinase γ.

On to `CCn1nnc2c(N3CCOCC3)nc(-c3ccc(NC(=O)OCCc4ccc(N)cc4)cc3)nc21` [Example 38, 2-(4-aminophenyl)ethyl [4-(3-ethyl-7-morpholin-4-yl-3H-[1,2,3]triazolo[4,5-d]pyrimidin-5-yl)phenyl]carbamate], for which the pIC50 at PI3 Kinase α is 6.47; against PI3 Kinase γ, 5.13.

For the compound `CC(C)(C)OC(=O)N1CC(Cn2nnc3c(N4CCOCC4)nc(-c4ccc(NC(=O)Nc5ccccc5)cc4)nc32)C1` [Example 188, tert-butyl 3-[(7-morpholin-4-yl-5-{4-[(phenylcarbamoyl)amino]phenyl}-3H-[1,2,3]triazolo[4,5-d]pyrimidin-3-yl)methyl]azetidine-1-carboxylate], the pIC50 against PI3 Kinase α was 7.71; at PI3 Kinase γ it was 6.29.

Take `Nc1ncc(-c2nc(N3CCOCC3)c3nnn(C4CCN(Cc5ccccc5)CC4)c3n2)cn1` [Example 2, 5-[3-(1-benzylpiperidin-4-yl)-7-morpholin-4-yl-3H-[1,2,3]triazolo[4,5-d]pyrimidin-5-yl]pyrimidin-2-amine]: the negative logarithm of the IC50 (pIC50) at PI3 Kinase α is 5.74; on PI3 Kinase γ, 5.36.

For `CN(C)CCCOc1ccc(CN2CCC(n3nnc4c(N5CCOCC5)nc(-c5ccc(NC(=O)NCCN(C)C)cc5)nc43)CC2)cc1` [Example 162, 1-(2-(dimethylamino)ethyl)-3-(4-(3-(1-(4-(3-(dimethylamino)propoxy)benzyl)piperidin-4-yl)-7-morpholino-3H-[1,2,3]triazolo[4,5-d]pyrimidin-5-yl)phenyl)urea], the negative-log IC50 (pIC50) against PI3 Kinase α was 7.94; against PI3 Kinase γ it was 6.99.

For the compound `Oc1cncc(-c2nc(N3CCOCC3)c3nnn(C4CCNCC4)c3n2)c1` [Example 12, 5-(7-morpholin-4-yl-3-piperidin-4-yl-3H-[1,2,3]triazolo[4,5-d]pyrimidin-5-yl)pyridin-3-ol], the figures for the pIC50 on PI3 Kinase α and against PI3 Kinase γ were 7.10 and 6.77, respectively.

For the compound `COC(Cn1nnc2c(N3CCOCC3)nc(-c3ccc(NC(=O)Nc4ccc(C)cc4)cc3)nc21)OC` [Example 179, 1-{4-[3-(2,2-dimethoxyethyl)-7-morpholin-4-yl-3H-[1,2,3]triazolo[4,5-d]pyrimidin-5-yl]phenyl}-3-(4-methylphenyl)urea], the negative-log IC50 (pIC50) against PI3 Kinase α was 6.85; on PI3 Kinase γ, 6.47.

Take `CC(C)(C)OC(=O)N1CCC(n2nnc3c(N4CCOCC4)nc(-c4ccc(NC(=O)Nc5cccnc5)cc4)nc32)CC1` [Example 150, tert-butyl 4-(7-morpholin-4-yl-5-{4-[(pyridin-3-ylcarbamoyl)amino]phenyl}-3H-[1,2,3]triazolo[4,5-d]pyrimidin-3-yl)piperidine-1-carboxylate]: the pIC50 at PI3 Kinase α was 7.67; on PI3 Kinase γ, 6.65.

On to `CNC(=O)Nc1ccc(-c2nc(N3CCOCC3)c3nnn(C4CCN(Cc5ccccc5)CC4)c3n2)cc1` [Example 6, 1-{4-[3-(1-benzylpiperidin-4-yl)-7-morpholin-4-yl-3H-[1,2,3]triazolo[4,5-d]pyrimidin-5-yl]phenyl}-3-methylurea], for which the pIC50 is 7.00 against PI3 Kinase α and 6.21 at PI3 Kinase γ.

For the compound `CCn1nnc2c(N3CCOCC3)nc(-c3ccc(NC(=O)Nc4ccnc(C)c4)cc3)nc21` [Example 35, 1-[4-(3-ethyl-7-morpholin-4-yl-3H-[1,2,3]triazolo[4,5-d]pyrimidin-5-yl)phenyl]-3-(2-methylpyridin-4-yl)urea], the pIC50 at PI3 Kinase α was 8.10; against PI3 Kinase γ, 7.43.

As to `CCn1nnc2c(N3CCOCC3)nc(-c3ccc(NC(=O)NC4CCNCC4)cc3)nc21` [Example 66, 1-[4-(3-ethyl-7-morpholin-4-yl-3H-[1,2,3]triazolo[4,5-d]pyrimidin-5-yl)phenyl]-3-piperidin-4-ylurea], the pIC50 at PI3 Kinase α is 6.40; against PI3 Kinase γ it was 5.56.

`CN(C)CCNC(=O)Nc1ccc(-c2nc(N3CCOCC3)c3nnn(C4CCN(C(=O)OC(C)(C)C)CC4)c3n2)cc1` [Example 151, tert-butyl 4-(5-(4-(3-(2-(dimethylamino)ethyl)ureido)phenyl)-7-morpholino-3H-[1,2,3]triazolo[4,5-d]pyrimidin-3-yl)piperidine-1-carboxylate]: the pIC50 at PI3 Kinase α is 6.53; against PI3 Kinase γ, 6.13.

In the case of `CCn1nnc2c(N3CCOCC3)nc(-c3ccc(NC(=O)Nc4ccncc4)cc3)nc21` [Example 33, 1-[4-(3-ethyl-7-morpholin-4-yl-3H-[1,2,3]triazolo[4,5-d]pyrimidin-5-yl)phenyl]-3-pyridin-4-ylurea], the results for the pIC50 against PI3 Kinase α and at PI3 Kinase γ were 8.52 and 7.72, respectively.

For the compound `COC(=O)c1cccc(-n2nnc3c(N4CCOCC4)nc(-c4cccc(O)c4)nc32)c1` [Example 115, methyl 3-[5-(3-hydroxyphenyl)-7-morpholin-4-yl-3H-[1,2,3]triazolo[4,5-d]pyrimidin-3-yl]benzoate], the pIC50 on PI3 Kinase α is 6.62; at PI3 Kinase γ it was 5.44.

For the compound `CN(C)CCNC(=O)Nc1ccc(-c2nc(N3CCOCC3)c3nnn(C4CCN(Cc5ccc(Br)nc5)CC4)c3n2)cc1` [Example 155, 1-(4-(3-(1-((6-bromopyridin-3-yl)methyl)piperidin-4-yl)-7-morpholino-3H-[1,2,3]triazolo[4,5-d]pyrimidin-5-yl)phenyl)-3-(2-(dimethylamino)ethyl)urea], the pIC50 against PI3 Kinase α is 7.32; against PI3 Kinase γ, 6.75.

As for `CCn1nnc2c(N3CCOCC3)nc(-c3ccc(NC(=O)Nc4ccc(C(=O)N5CCN(c6ccccn6)CC5)cc4)cc3)nc21` [Example 58, 1-[4-(3-ethyl-7-morpholin-4-yl-3H-[1,2,3]triazolo[4,5-d]pyrimidin-5-yl)phenyl]-3-{4-[(4-pyridin-2-ylpiperazin-1-yl)carbonyl]phenyl}urea], the pIC50 was 8.60 against PI3 Kinase α and 7.85 against PI3 Kinase γ.

Consider `CC(C)(C)OC(=O)N1CC(n2nnc3c(N4CCOCC4)nc(-c4ccc(NC(=O)Nc5cccs5)cc4)nc32)C1` [Example 132, tert-butyl 3-(7-morpholin-4-yl-5-{4-[(2-thienylcarbamoyl)amino]phenyl}-3H-[1,2,3]triazolo[4,5-d]pyrimidin-3-yl)azetidine-1-carboxylate], for which the pIC50 on PI3 Kinase α is 7.68; against PI3 Kinase γ it was 5.85.

Regarding `CN(C)CCCOc1ccc(CN2CC(Cn3nnc4c(N5CCOCC5)nc(-c5ccc(NC(=O)Nc6ccccc6)cc5)nc43)C2)cc1` [Example 194, 1-(4-{3-[(1-{4-[3-(Dimethylamino)propoxy]benzyl}azetidin-3-yl)methyl]-7-morpholin-4-yl-3H-[1,2,3]triazolo[4,5-d]pyrimidin-5-yl}phenyl)-3-phenylurea], the values for the pIC50 at PI3 Kinase α and on PI3 Kinase γ were 7.51 and 6.68, respectively.

Take `CC(=O)N1CCN(CCn2nnc3c(N4CCOCC4)nc(-c4cccc(O)c4)nc32)CC1` [Example 105, 3-{3-[2-(4-acetylpiperazin-1-yl)ethyl]-7-morpholin-4-yl-3H-[1,2,3]triazolo[4,5-d]pyrimidin-5-yl}phenol]: the values for the pIC50 at PI3 Kinase α and at PI3 Kinase γ were 5.86 and 5.53, respectively.

For the compound `CCn1nnc2c(N3CCOCC3)nc(-c3ccc(NC(=O)Nn4cnnc4)cc3)nc21` [Example 36, 1-[4-(3-ethyl-7-morpholin-4-yl-3H-[1,2,3]triazolo[4,5-d]pyrimidin-5-yl)phenyl]-3-(4H-1,2,4-triazol-4-yl)urea], the results for the negative-log IC50 (pIC50) at PI3 Kinase α and against PI3 Kinase γ were 6.75 and 6.05, respectively.

Regarding `CN(C)CCNC(=O)Cn1nnc2c(N3CCOCC3)nc(-c3cccc(CO)c3)nc21` [Example 239, N-[2-(dimethylamino)ethyl]-2-{5-[3-(hydroxymethyl)phenyl]-7-morpholin-4-yl-3H-[1,2,3]triazolo[4,5-d]pyrimidin-3-yl}acetamide], the pIC50 at PI3 Kinase α was 5.95; on PI3 Kinase γ, 5.30.

Consider `CN(C)CCCOc1ccc(CN2CCC(n3nnc4c(N5CCOCC5)nc(-c5cccc(O)c5)nc43)CC2)cc1` [Example 146, 3-[3-(1-{4-[3-(dimethylamino)propoxy]benzyl}piperidin-4-yl)-7-morpholin-4-yl-3H-[1,2,3]triazolo[4,5-d]pyrimidin-5-yl]phenol], for which the negative-log IC50 (pIC50) was 7.89 against PI3 Kinase α and 6.55 against PI3 Kinase γ.

For `O=C(Nc1ccc(CCO)cc1)Nc1ccc(-c2nc(N3CCOCC3)c3nnn(CC(F)(F)F)c3n2)cc1` [Example 138, 1-[4-(2-hydroxyethyl)phenyl]-3-{4-[7-morpholin-4-yl-3-(2,2,2-trifluoroethyl)-3H-[1,2,3]triazolo[4,5-d]pyrimidin-5-yl]phenyl}urea], the results for the negative-log IC50 (pIC50) on PI3 Kinase α and against PI3 Kinase γ were 8.52 and 7.90, respectively.

Source of the values: US20090181963A1, “3H-[1,2,3]TRIAZOLO[4,5-D]PYRIMIDINE COMPOUNDS, THEIR USE AS mTOR KINASE AND PI3 KINASE INHIBITORS, AND THEIR [sequence]” (Wyeth, priority 2008, published 2009).
